Laboratory results as given in patent US20230096766A1, “AMINO ACID HAVING FUNCTIONAL GROUP CAPABLE OF INTERMOLECULAR HYDROGEN BONDING, PEPTIDE COMPOUND CONTAINING SAME AND METHOD FOR PRODUCTION THEREOF” (Chugai Seiyaku Kabushiki Kaisha, priority 2018, published 2023).
*1 amine or outer side, *2 acyl side, *3 side chain or, on linkers, in order; H or OH if unused. Where a SMILES comes first, the peptide text is derived from it. Bridges are numbered along the chain shown (N, C = ends). [ ]: non-standard residue; d: D form. The star is where a group is joined. Phe(3-OMe,4-CONHMe) = CNC(=O)c1ccc(C[C@H](N)C(=O)O)cc1OC; X10 = CN([C@@H](CCN1CCC(F)(F)CC1)C(=O)[*:2])[*:1]; X11 = CNC(=O)c1ccc(CCN(CC(=O)[*:2])[*:1])cc1OC; NMePhe(3-Cl) = CN[C@@H](Cc1cccc(Cl)c1)C(=O)O; Tyr(3-OMe) = COc1cc(C[C@H](N)C(=O)O)ccc1O; NMeW = CN[C@@H](Cc1c[nH]c2ccccc12)C(=O)O; NMehPhe = CN[C@@H](CCc1ccccc1)C(=O)O; X9 = O=C([C@@H](CN[*:1])COCCO)[*:2]; X7 = O=C(C[C@H](COCCO)N[*:1])[*:2]; NMeF = CN[C@@H](Cc1ccccc1)C(=O)O; NMeGABA = CN(CCCC(=O)[*:2])[*:1]; NMeI = CC[C@H](C)[C@H](NC)C(=O)O; Butyl(3-Me,3-OH) = CC(C)(O)CC*; CH2CH(OH)CF3 = OC(C*)C(F)(F)F; NMeL = CN[C@@H](CC(C)C)C(=O)O; Propyl(2R-OH) = C[C@@H](O)C*; NMeV = CN[C@H](C(=O)O)C(C)C; NMeAbu = CC[C@H](NC)C(=O)O; NMeA = CN[C@@H](C)C(=O)O; Piperidide = C1CCN(*)CC1; X8 = C1COC[C@@H](C*)N1; NBuGly = CCCCNCC(=O)O; NPrGly = CCCNCC(=O)O; Propyl(3-OH) = OCCC*; Sar = CNCC(=O)O; tBu = CC(C)(C)*

Experiment: in vitro
Settings: human
[1] = Caco-2, Caco-2 (membrane permeability)

SMILES	Papp (Caco-2, Caco-2 (cm/sec))	further results
CC(C)C[C@@H]1NC(=O)[C@H](Cc2ccccc2)N(C)C(=O)[C@@H](C(C)C)NC(=O)C[C@@H](C(=O)N2CCCCC2)NC(=O)[C@H](Cc2ccccc2)N(C)C(=O)[C@H](Cc2ccccc2)N(C)C(=O)[C@H](C(C)C)NC(=O)[C@H](CC(C)C)N(C)C(=O)CN(C)C(=O)[C@H]([C@@H](C)O)NC(=O)[C@H](CC(C)C)N(C)C1=O [pd221] ([dV][NMeF]L[NMeL]T[Sar][NMeL]V[NMeF][NMeF]D-Piperidide; lactam N-11)	1.1 ×10⁻⁶ cm/s	–
CCCCN1CC(=O)N(C)[C@@H](C)C(=O)N[C@@H](COC(C)(C)C)C(=O)N(C)[C@@H](CC(C)C)C(=O)N(CCc2ccc(C(=O)NC)c(OC)c2)CC(=O)N[C@H](C(=O)N2CCCCC2)CC(=O)N[C@H](CC(C)C)C(=O)N(C)[C@@H](Cc2ccccc2)C(=O)N[C@@H](CC(C)C)C(=O)N(C)[C@@H](CC(C)C)C(=O)N[C@@H]([C@@H](C)O)C1=O [AP220] ([dL][NMeF]L[NMeL]T[NBuGly][NMeA]S(tBu)[NMeL][X11]D-Piperidide; lactam N-11)	0.8 ×10⁻⁶ cm/s	–
CC(C)C[C@H]1C(=O)N(C)[C@@H](CC(C)C)C(=O)N(C)[C@@H](Cc2c[nH]c3ccccc23)C(=O)N[C@@H]([C@@H](C)O)C(=O)N(C)[C@@H](C)C(=O)N(C)[C@@H](CC(C)C)C(=O)N[C@H](C(=O)N2CCCCC2)CC(=O)N(C)[C@@H](C)C(=O)N(C)[C@@H](CC(C)C)C(=O)N(C)[C@@H](CC(C)C)C(=O)N[C@@H](C)C(=O)N1C [pd105] ([NMeA][NMeL][NMeL]A[NMeL][NMeL][NMeW]T[NMeA][NMeL]D-Piperidide; lactam N-11)	0.28 ×10⁻⁶ cm/s	–
CCCN1CC(=O)N(C)[C@@H](CC(C)C)C(=O)N[C@H](C(=O)N2CCCCC2)CC(=O)N(C)[C@@H](CC(C)C)C(=O)N[C@@H](CCC(=O)NC)C(=O)N(C)[C@@H](CC(C)C)C(=O)N(C)[C@@H](Cc2ccccc2)C(=O)N[C@@H](CC(C)C)C(=O)N(C)[C@@H](Cc2ccccc2)C(=O)N(C)[C@@H]([C@@H](C)CC)C(=O)N[C@@H]([C@@H](C)O)C1=O [Compound J03] ([NMeL]E(NHMe)[NMeL][NMeF]L[NMeF][NMeI]T[NPrGly][NMeL]D-Piperidide; lactam N-11)	–	Papp [1]: 0.21 ×10⁻⁶ cm/s
CC[C@H](C)[C@@H]1NC(=O)[C@H](CC(C)C)N(C)C(=O)CCCN(C)C(=O)C[C@@H](C(=O)N2CCCCC2)NC(=O)[C@H](CC(C)C)N(C)C(=O)[C@H](CC(C)C)N(C)C(=O)[C@H]([C@@H](C)O)NC(=O)[C@H](CC(C)C)N(C)C(=O)[C@H](COC[C@@H]2COCCN2)NC(=O)[C@H](CC(C)C)N(C)C(=O)[C@H](Cc2ccccc2)N(C)C1=O [AP241] ([NMeGABA][NMeL]I[NMeF][NMeL]S(X8)[NMeL]T[NMeL][NMeL]D-Piperidide; lactam N-11)	0.05 ×10⁻⁶ cm/s	–
CCCCN1CC(=O)N(C)[C@@H](CC(C)C)C(=O)N[C@H](C(=O)N2CCCCC2)CC(=O)N(C)[C@@H](CC)C(=O)N[C@@H](CC(C)C)C(=O)N(C)[C@@H](CC(C)C)C(=O)N(C)[C@@H](Cc2ccccc2)C(=O)N[C@@H](COC[C@@H]2COCCN2)C(=O)N(C)[C@@H](CC)C(=O)N(C)[C@@H](CC(C)C)C(=O)N[C@@H]([C@@H](C)O)C1=O [AP242] ([NMeAbu]L[NMeL][NMeF]S(X8)[NMeAbu][NMeL]T[NBuGly][NMeL]D-Piperidide; lactam N-11)	1.2 ×10⁻⁶ cm/s	–
COc1cc(C[C@@H]2NC(=O)[C@H](CC(C)C)N(C)C(=O)CCCN(C)C(=O)C[C@@H](C(=O)N3CCCCC3)NC(=O)[C@H](CC(C)C)N(C)C(=O)[C@H](CC(C)C)N(C)C(=O)[C@H]([C@@H](C)O)NC(=O)[C@H](CC(C)C)N(C)C(=O)[C@H](COC(C)(C)C)NC(=O)[C@H](Cc3ccccc3)N(C)C(=O)[C@H](CC(C)C)N(C)C2=O)ccc1O [Compound E04] ([NMeGABA][NMeL][Tyr(3-OMe)][NMeL][NMeF]S(tBu)[NMeL]T[NMeL][NMeL]D-Piperidide; lactam N-11)	0.4 ×10⁻⁶ cm/s	–
CC[C@H](C)[C@@H]1NC(=O)[C@H](CC(C)C)N(C)C(=O)CN(C)C(=O)C[C@@H](C(=O)N2CCCCC2)NC(=O)[C@H](C)N(C)C(=O)[C@H](COC(C)(C)C)NC(=O)[C@H](CC(C)C)N(C)C(=O)[C@H](CC(C)C)N(C)C(=O)CN(C)C(=O)[C@H](Cc2c[nH]c3ccccc23)NC(=O)[C@H](CC(C)C)N(C)C1=O [pd103] ([Sar][NMeL]I[NMeL]W[Sar][NMeL][NMeL]S(tBu)[NMeA]D-Piperidide; lactam N-11)	0.093 ×10⁻⁶ cm/s	–
CCCCN1CC(=O)N(C)[C@@H](Cc2ccccc2)C(=O)N[C@@H](CC(C)C)C(=O)N(C)[C@@H](CC(C)C)C(=O)N[C@@H]([C@@H](C)O)C(=O)N(C)CC(=O)N(C)[C@@H](Cc2ccccc2)C(=O)N(C)[C@@H](CCN2CCC(F)(F)CC2)C(=O)N[C@@H](CC(C)C)C(=O)N(C)[C@@H](C(C)C)C(=O)N[C@H](C(=O)N2CCCCC2)CC1=O [pd395] ([NBuGly][NMeF]L[NMeL]T[Sar][NMeF][X10]L[NMeV]D-Piperidide; lactam N-11)	–	Papp (Caco-2, Caco-2): 1.7 ×10⁻⁶ cm/s
CC(C)C[C@@H]1NC(=O)[C@H](Cc2ccccc2)N(C)C(=O)[C@@H]2CCCN2C(=O)C[C@@H](C(=O)N2CCCCC2)NC(=O)[C@H](Cc2ccccc2)N(C)C(=O)[C@H](Cc2ccccc2)N(C)C(=O)[C@H](COC(C)(C)C)NC(=O)[C@H](CC(C)C)N(C)C(=O)CN(C)C(=O)[C@H]([C@@H](C)O)NC(=O)[C@H](CC(C)C)N(C)C1=O [pd203] (P[NMeF]L[NMeL]T[Sar][NMeL]S(tBu)[NMeF][NMeF]D-Piperidide; lactam N-11)	2.1 ×10⁻⁶ cm/s	–
CCCN1CC(=O)N(C)[C@@H](CC(C)C)C(=O)N[C@@H](CC(C)C)C(=O)N(C)[C@@H](Cc2ccccc2)C(=O)N(C)[C@@H](CC(C)C)C(=O)N[C@H](C(=O)N2CCCCC2)CC(=O)N[C@H](CC(C)C)C(=O)N(C)[C@@H](Cc2ccccc2)C(=O)N[C@@H](COCCO)CC(=O)N(C)[C@@H](CC(C)C)C(=O)N[C@@H]([C@@H](C)O)C1=O [AP20] ([dL][NMeF][X7][NMeL]T[NPrGly][NMeL]L[NMeF][NMeL]D-Piperidide; lactam N-11)	0.37 ×10⁻⁶ cm/s	–
CC(C)C[C@H]1C(=O)N(C)[C@@H](Cc2c[nH]c3ccccc23)C(=O)N(C)[C@@H](Cc2ccccc2)C(=O)N[C@@H]([C@@H](C)O)C(=O)N(C)[C@@H](C)C(=O)N(C)[C@@H](CC(C)C)C(=O)N[C@H](C(=O)N2CCCCC2)CC(=O)N(C)[C@@H](C)C(=O)N(C)[C@@H](CC(C)C)C(=O)N(C)[C@@H](CC(C)C)C(=O)N[C@@H](C)C(=O)N1C [pd104] ([NMeA][NMeL][NMeL]A[NMeL][NMeW][NMeF]T[NMeA][NMeL]D-Piperidide; lactam N-11)	0.025 ×10⁻⁶ cm/s	–
CC[C@H](C)[C@@H]1NC(=O)[C@H](CC(C)C)N(C)C(=O)CN(C)C(=O)C[C@@H](C(=O)N2CCCCC2)NC(=O)[C@H](CC(C)C)N(C)C(=O)[C@H](Cc2ccc(C(=O)NC)c(OC)c2)NC(=O)[C@H](CC(C)C)N(C)C(=O)[C@H](Cc2cccc(Cl)c2)N(C)C(=O)CN(C)C(=O)[C@H]([C@@H](C)O)NC(=O)[C@H](CC(C)C)N(C)C1=O [AP34] ([Sar][NMeL]I[NMeL]T[Sar][NMePhe(3-Cl)][NMeL][Phe(3-OMe,4-CONHMe)][NMeL]D-Piperidide; lactam N-11)	0.2 ×10⁻⁶ cm/s	–
CCCCN1CC(=O)N(C)[C@@H](Cc2ccccc2)C(=O)N(C)[C@@H](CC(C)C)C(=O)N[C@@H](CC(C)C)C(=O)N(C)[C@@H](CC(C)C)C(=O)N[C@H](C(=O)N2CCCCC2)CC(=O)N(C)CC(=O)N(C)[C@@H](CC(C)C)C(=O)N[C@@H](Cc2ccc(O)c(OC)c2)C(=O)N(C)[C@@H](CC)C(=O)N[C@@H]([C@@H](C)O)C1=O [Compound E07] ([Sar][NMeL][Tyr(3-OMe)][NMeAbu]T[NBuGly][NMeF][NMeL]L[NMeL]D-Piperidide; lactam N-11)	1.1 ×10⁻⁶ cm/s	–
CC(C)C[C@@H]1NC(=O)[C@H](Cc2cccc(Cl)c2)N(C)C(=O)[C@H](Cc2ccccc2)N(C)C(=O)[C@H](COCCCO)NC(=O)[C@H](CC(C)C)N(C)C(=O)CCCN(C)C(=O)C[C@@H](C(=O)N2CCCCC2)NC(=O)[C@H](CC(C)C)N(C)C(=O)[C@H](CC(C)C)N(C)C(=O)[C@H]([C@@H](C)O)NC(=O)[C@H](CC(C)C)N(C)C1=O [AP91] ([NMeGABA][NMeL]S(Propyl(3-OH))[NMeF][NMePhe(3-Cl)]L[NMeL]T[NMeL][NMeL]D-Piperidide; lactam N-11)	0.14 ×10⁻⁶ cm/s	–
CCCCN1CC(=O)N(C)[C@@H](Cc2ccccc2)C(=O)N[C@@H]([C@@H](C)CC)C(=O)N(C)[C@@H](CC(C)C)C(=O)N[C@@H]([C@@H](C)O)C(=O)N(CCC)CC(=O)N(C)[C@@H](Cc2ccccc2)C(=O)N(C)[C@@H](CC(C)C)C(=O)NC[C@@H](COCCO)C(=O)N(C)[C@@H](CC(C)C)C(=O)N[C@H](C(=O)N2CCCCC2)CC1=O [AP134] ([NBuGly][NMeF]I[NMeL]T[NPrGly][NMeF][NMeL][X9][NMeL]D-Piperidide; lactam N-11)	0.62 ×10⁻⁶ cm/s	–
CCCCN1CC(=O)N(C)[C@@H](CC(C)C)C(=O)N[C@@H](COC[C@@H](C)O)C(=O)N(C)[C@@H](Cc2cccc(Cl)c2)C(=O)N(C)[C@@H](C(C)C)C(=O)N[C@H](C(=O)N2CCCCC2)CC(=O)N[C@H](C(C)C)C(=O)N(C)[C@@H](Cc2ccccc2)C(=O)N[C@@H](CC(C)C)C(=O)N(C)[C@@H](CC(C)C)C(=O)N[C@@H]([C@@H](C)O)C1=O [AP80] ([dV][NMeF]L[NMeL]T[NBuGly][NMeL]S(Propyl(2R-OH))[NMePhe(3-Cl)][NMeV]D-Piperidide; lactam N-11)	0.36 ×10⁻⁶ cm/s	–
CC(C)C[C@@H]1NC(=O)[C@H](C)N(C)C(=O)C[C@@H](C(=O)N2CCCCC2)NC(=O)[C@H](CC(C)C)N(C)C(=O)CN(C)C(=O)[C@H]([C@@H](C)O)NC(=O)[C@H](CC(C)C)N(C)C(=O)[C@H](CCc2ccccc2)N(C)C(=O)[C@H](COCCC(C)(C)O)NC(=O)[C@H](Cc2ccccc2)N(C)C(=O)[C@H](CC(C)C)N(C)C1=O [AP56] ([NMeA]L[NMeL][NMeF]S(Butyl(3-Me,3-OH))[NMehPhe][NMeL]T[Sar][NMeL]D-Piperidide; lactam N-11)	1.3 ×10⁻⁶ cm/s	–
CCCCN1CC(=O)N(C)[C@@H](Cc2ccccc2)C(=O)N(C)[C@@H](CC(C)C)C(=O)N[C@@H](COC(C)(C)C)C(=O)N(C)[C@@H](CC(C)C)C(=O)N[C@H](C(=O)N2CCCCC2)CC(=O)N(C)CC(=O)N(C)[C@@H](Cc2ccccc2)C(=O)N[C@@H](C(C)C)C(=O)N(C)[C@@H](CC)C(=O)N[C@@H](COCC(O)C(F)(F)F)C1=O (stereo partly drawn) [Compound C16] ([Sar][NMeF]V[NMeAbu]S(CH2CH(OH)CF3)[NBuGly][NMeF][NMeL]S(tBu)[NMeL]D-Piperidide; lactam N-11)	–	Papp [1]: 0.41 ×10⁻⁶ cm/s
